In ChEMBL document CHEMBL1201862, “PubChem BioAssay data set” (2004):
Active and inactive are the calls of the source.

What was measured:
[1] = system: Streptococcus; assay: Group A Streptococcus viability loss, dose response, counter-screen for streptokinase expression inhibitor project, luminescence, BacTiterGlo (AID 1915); format: functional, organism-based;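 also: potency for reduction of bacterial viability or growth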
[2] = system: Streptococcus sp. 'group A'; assay: growth inhibition of control SK(-) GAS strain, dose response, counter-screen for streptokinase expression inhibitor project, luminescence, kanamycin, BacTiterGlo, confirmation (AID 1900); format: functional, organism-based
[3] = molecular target: T1, Streptokinase A (Streptococcus pyogenes serotype M1, UniProt P10520); assay: S. pyogenes streptokinase expression inhibitors, potency, dose response, plasminogen activation absorbance, OD405 (AID 1914); format: functional, Streptococcus pyogenes M1 GAS;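 also: secreted streptokinase activity via plasminogen activation per viability signal from cell pellet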
T1 sequence (P10520 whole entry): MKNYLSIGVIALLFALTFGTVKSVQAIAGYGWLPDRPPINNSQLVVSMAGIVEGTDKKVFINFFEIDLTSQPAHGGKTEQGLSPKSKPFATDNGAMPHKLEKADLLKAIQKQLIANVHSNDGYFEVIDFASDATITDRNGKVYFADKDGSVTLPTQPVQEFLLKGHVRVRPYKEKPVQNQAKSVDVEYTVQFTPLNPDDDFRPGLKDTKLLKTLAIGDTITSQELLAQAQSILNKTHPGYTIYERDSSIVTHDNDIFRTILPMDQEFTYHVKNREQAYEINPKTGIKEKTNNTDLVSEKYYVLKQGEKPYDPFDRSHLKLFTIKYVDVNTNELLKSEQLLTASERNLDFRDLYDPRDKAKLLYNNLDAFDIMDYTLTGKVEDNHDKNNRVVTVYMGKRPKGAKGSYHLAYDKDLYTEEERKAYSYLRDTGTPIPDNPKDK

[4] = system: Streptococcus; assay: Luminescence Microorganism-Based Dose Response Follow up to Identify Compounds Cytotoxic to Streptococcus. [Related pubchem assays: 1677 (Project Summary), 1915, 1914, 1902 (Retest at Dose), 1900 (Counter Screen), 1662 (Primary HTS)]; format: functional, organism-based
[5] = molecular target: Acyl-homoserine lactone acylase PvdQ (Pseudomonas aeruginosa (strain LESB58), UniProt Q9I194); assay: P. aeruginosa PvdQ acylase inhibitors, dose response, biochemical, fluorescence, plate reader and imaging, cherry-picks (AID 493231)
[6] = molecular target: Neuropeptide Y receptor type 2 (Homo sapiens, UniProt P49146); assay: NPY-Y2 antagonist potency, selectivity check, dose response, counter-screen for NPY-Y1 antagonist project, cell-based (AID 1278); format: functional
[7] = molecular target: Neuropeptide Y receptor type 1 (Homo sapiens, UniProt P25929); assay: NPY-Y1 receptor antagonist potency, dose response, cell-based (AID 1277); format: functional
[8] = A Cell Based Assay for the Identification of Probe candidate Compounds with Anti- Venezuelan Equine Encephalitis virus. [Related pubchem assays: 2409, 2419, 1621, 2238, 2405, 2024, 2065, 2402, 2414, 1635, 1650, 2244 ]; format: functional
[9] = system: Vero; assay: Vero E6 cell cytotoxicity, SAR follow-up, cytotoxicity control for West Nile virus antiviral project, synthesized analogs (AID 2244); format: functional; conditions: Chlorocebus sabaeus
[10] = system: Vero; assay: cytotoxicity of synthesized analogs in Vero cells, SAR follow-up, cytotoxicity control for West Nile virus antiviral project, cell-based, set II (AID 2402); format: functional; conditions: Chlorocebus sabaeus
[11] = system: Vero; assay: cytotoxicity of synthesized analogs in Vero 76, SAR follow-up, cytotoxicity control for West Nile virus antiviral project, Vero 76 cells (AID 2414); format: functional; conditions: Chlorocebus sabaeus
[12] = enhancers of respiration in Yfh1-depleted yeast, dose response, Friedreich's ataxia, plus single-dose screen (AID 1465); format: functional;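 also: yeast depleted of Yfh1p frataxin homolog grown on glycerol needing respiration; WST-1 tetrazolium dye reduction as measure of cellular dehydrogenase metabolic activity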
[13] = cytotoxicity in HEK-293T cells, dose response, cytotoxicity control for BCR NF-kB inhibitor project, luminescence, B-cell screen hits (AID 489021); format: functional, cell-based;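 also: HEK-293T cells carrying an NF-kB luciferase reporter; cells exposed to compound for about 14 hours before viability readout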
[14] = molecular target: T2, Sentrin-specific protease 1 (Homo sapiens, UniProt Q9P0U3); assay: Dose response confirmation of small molecule inhibitors of the catalytic domain of the SUMO protease, SENP1 in a FRET assay.; format: functional; conditions: read-out: IC50_Mean
T2 sequence (Q9P0U3 whole entry): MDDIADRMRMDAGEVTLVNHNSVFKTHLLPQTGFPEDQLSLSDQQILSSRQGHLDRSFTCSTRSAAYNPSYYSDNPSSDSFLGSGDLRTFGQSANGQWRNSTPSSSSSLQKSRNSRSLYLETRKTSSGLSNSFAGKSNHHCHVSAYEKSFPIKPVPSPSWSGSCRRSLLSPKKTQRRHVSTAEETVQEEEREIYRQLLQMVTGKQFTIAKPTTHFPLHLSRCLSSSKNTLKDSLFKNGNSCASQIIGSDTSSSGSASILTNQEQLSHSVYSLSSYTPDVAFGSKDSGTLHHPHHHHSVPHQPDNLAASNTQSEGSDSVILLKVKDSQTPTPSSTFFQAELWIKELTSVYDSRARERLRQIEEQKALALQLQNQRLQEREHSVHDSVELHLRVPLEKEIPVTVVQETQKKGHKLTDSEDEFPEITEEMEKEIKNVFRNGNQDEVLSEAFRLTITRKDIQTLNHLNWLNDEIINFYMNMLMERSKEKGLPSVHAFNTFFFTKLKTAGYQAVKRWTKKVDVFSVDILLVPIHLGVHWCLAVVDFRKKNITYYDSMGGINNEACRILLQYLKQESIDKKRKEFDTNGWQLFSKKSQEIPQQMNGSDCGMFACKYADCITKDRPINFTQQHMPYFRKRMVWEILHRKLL

[15] = molecular target: T2, Sentrin-specific protease 1; assay: potency of human SENP1 inhibitors, dose response, biochemical, kinetic FRET (AID 651697); format: functional; conditions: read-out: IC50_Mean
[16] = molecular target: T3, Zinc finger protein mex-5 (Caenorhabditis elegans, UniProt Q9XUB2); assay: MEX-5/TCR-2 RNA interaction inhibitors, dose response, biochemical, C. elegans, fluorescence polarization (AID 1960)
T3 sequence (Q9XUB2 whole entry): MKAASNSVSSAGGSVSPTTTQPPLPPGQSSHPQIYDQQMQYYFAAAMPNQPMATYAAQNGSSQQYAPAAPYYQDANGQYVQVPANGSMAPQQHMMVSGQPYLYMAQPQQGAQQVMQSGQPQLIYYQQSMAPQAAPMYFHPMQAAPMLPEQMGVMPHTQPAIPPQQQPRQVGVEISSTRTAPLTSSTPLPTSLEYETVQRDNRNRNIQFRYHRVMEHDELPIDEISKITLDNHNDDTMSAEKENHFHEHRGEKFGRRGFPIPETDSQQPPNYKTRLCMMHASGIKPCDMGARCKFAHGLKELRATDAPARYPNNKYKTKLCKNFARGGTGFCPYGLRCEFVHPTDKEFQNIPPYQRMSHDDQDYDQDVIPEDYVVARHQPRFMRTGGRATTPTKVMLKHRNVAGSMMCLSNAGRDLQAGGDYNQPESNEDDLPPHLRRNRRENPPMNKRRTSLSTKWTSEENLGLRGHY

[17] = system: Salmon testes DNA; assay: DNA intercalators displacing acridine orange, dose response, artefact control for KSHV LANA DNA-binding inhibitor project, biochemical, fluorescence polarization, cherry-picked samples, set 2 (AID 504727); set-up: species or system Salmonidae
[18] = inhibitors of intracellular T. cruzi replication, confirmation, NIH3T3 host cells, beta-gal luminescence (AID 2044); format: functional, cell-based;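 also: intracellular parasites grown in NIH/3T3 mouse fibroblasts as host cells; luminescent beta-galactosidase reporter signal from transgenic T. cruzi replicating inside host cells; inhibitors lower the luminescence signal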
[19] = molecular target: T4, RNA-binding protein pos-1 (Caenorhabditis elegans, UniProt G5EF15); assay: inhibitors of POS-1/mex-3 RNA binding, dose response, biochemical, fluorescence polarization (AID 1964);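 also: purified POS-1 fused to maltose binding protein made in E. coli; potency of compounds blocking POS-1 binding to fluorescent RNA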
T4 sequence (G5EF15 whole entry): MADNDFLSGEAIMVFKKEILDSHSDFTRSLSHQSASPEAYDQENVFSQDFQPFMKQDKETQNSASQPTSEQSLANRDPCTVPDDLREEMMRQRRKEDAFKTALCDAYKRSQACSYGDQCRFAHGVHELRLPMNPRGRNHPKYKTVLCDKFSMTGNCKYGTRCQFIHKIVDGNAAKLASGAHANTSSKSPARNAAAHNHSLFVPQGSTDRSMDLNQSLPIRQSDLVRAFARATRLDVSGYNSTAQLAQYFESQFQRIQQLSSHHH

[20] = cytotoxicity toward NIH3T3 fibroblasts, dose response, counter-screen, cell-based, ATP luminescence, mouse fibroblasts (AID 2010); format: functional;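 also: cells exposed to compound for about 90 hours before reading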

## COc1ccc(-c2csc3ncnc(N4CCN(c5ccccc5Cl)CC4)c23)cc1
[1]
  EC50: > 150 µM (not active)
[2]
  EC50: 82.6 µM (active)
[3]
  EC50: 3.7 µM (active)
[4]
  EC50: > 500 µM (not active)

## O=C(CSCc1ccco1)N1CCc2ccccc21
[5]
  AC50: 1.9 µM (active)

## COc1ccc(C2N(c3ccc(Cl)cc3)N=C(C(C)=O)N(C)N2C(C)=O)cc1 (stereo not given)
[6]
  IC50: > 35 µM (not active)
[7]
  IC50: > 35 µM (not active)

## COc1cccc(NC(=O)CSc2nc3ccccc3c(=O)n2-c2ccc(F)cc2)c1
[8]
  IC50: 64.2 µM (active)
[9]
  CC50: > 40 µM (active)
[10]
  CC50: > 100 µM (active)
[11]
  CC50: > 66.6 µM (active)

## CCOc1ccc2nc(NN=C3C(=O)NC(=O)NC3=O)sc2c1
[12]
  EC50: > 100 µM (active)

## CCSc1ncc(Cl)c(C(=O)Nc2sc3c(c2C(=O)NCc2cccnc2)CCCC3)n1
[13]
  IC50: > 80 µM (inactive)
[14]
  IC50: 5.97 µM (active)
[15]
  IC50: 19.1 µM (active)

## COc1cccc(OCCCn2cc(/C=C3/C(=N)N4C=C(C)SC4=NC3=O)c3ccccc32)c1
[16]
  EC50: 109 µM (active)
[17]
  AC50: 65.9 µM (active)
[18]
  EC50: 1.34 µM (active)
[19]
  EC50: 108 µM (active)
[20]
  EC50: > 60 µM (not active)
